In patent publication US5262417A, “Antibacterial quinolone compounds” (The Upjohn Company, priority 1991, dated 1993):
In brackets after ≈: the same amount, converted by molar mass. Read-outs that look alike come from different tables or passages of the source.

Tests used:
Assay in all cases: Minimum inhibitory concentration (MIC) by agar dilution
Type in all cases: cell-based
Enterobacter cloacae = tested on: Enterobacter cloacae
Experimental: (§1) Briefly, MIC values are determined in unsupplemented Mueller Hinton Agar (MHA). The compounds tested are diluted serially into molten MHA at 47° C. The agar is poured into petri dishes and allowed to harden. The various bacteria used for testing are grown overnight on MHA at 35° C. and transferred to Trypticase soy broth (TSB) until a turbidity of 0.5 McFarland standard is obtained. The bacteria are diluted one to 20 in TSB and inoculated on the plates (1 μl using a Steers replicator).
as §1, with “Compounds of this invention can also be tested for in vitro antimicrobial activity using standard testing procedures such as the determination of minimum inhibitory concentration (MIC) by agar dilution as described in "Methods for Dilution Antimicrobial Susceptibility Tests for Bacteria That Grow Aerobically" (MFT) published Jan. […] Briefly,” for “Briefly,”, “(1μl” for “(1 μl”

Streptococcus faecalis = conditions: Enterococcus faecalis
Experimental: as §1, with “The antibacterial activity of the compounds of Formula IC was determined by using standard testing procedures such as the determination of minimum inhibitory concentration (MIC) by agar dilution as described in "Methods for Dilution Antimicrobial Susceptibility Tests for Bacteria That Grow Aerobically" (MFT) published January 1983 by the National Committee for Clinical Laboratory Standards, 771 East Lancaster Avenue, Villanova, Pa. 19084, USA. Briefly,” for “Briefly,”
(§2) Compounds of this invention can also be tested for in vitro antimicrobial activity using standard testing procedures such as the determination of minimum inhibitory concentration (MIC) by agar dilution as described in "Methods for Dilution Antimicrobial Susceptibility Tests for Bacteria That Grow Aerobically" (MFT) published Jan. 1983 by the National Committee for Clinical Laboratory Standards, 771 East Lancaster Avenue, Villanova, Penna. 19084, USA. Briefly, MIC values are determined in unsupplemented Mueller Hinton Agar (MHA). The compounds tested are diluted serially into molten MHA at 47° C. The agar is poured into petri dishes and allowed to harden. The various bacteria used for testing are grown overnight on MHA at 35° C. and transferred to Trypticase soy broth (TSB) until a turbidity of 0.5 McFarland standard is obtained. The bacteria are diluted one to 20 in TSB and inoculated on the plates (1μl using a Steers replicator). […] The MIC test results of selected of Formula B compounds of this invention are found in Tables B2-B9.

Klebsiella pneumoniae = tested on: Klebsiella pneumoniae
Experimental: (§3) The antibacterial activity of the compounds of Formula IC was determined by using standard testing procedures such as the determination of minimum inhibitory concentration (MIC) by agar dilution as described in "Methods for Dilution Antimicrobial Susceptibility Tests for Bacteria That Grow Aerobically" (MFT) published January 1983 by the National Committee for Clinical Laboratory Standards, 771 East Lancaster Avenue, Villanova, Pa. 19084, USA. Briefly, MIC values are determined in unsupplemented Mueller Hinton Agar (MHA). The compounds tested are diluted serially into molten MHA at 47° C. The agar is poured into petri dishes and allowed to harden. The various bacteria used for testing are grown overnight on MHA at 35° C. and transferred to Trypticase soy broth (TSB) until a turbidity of 0.5 McFarland standard is obtained. The bacteria are diluted one to 20 in TSB and inoculated on the plates (1 μl using a Steers replicator).
as §2

Streptococcus pyogenes = conditions: Streptococcus pyogenes
Experimental: as §3, §2

[1] = tested on: Acinetobacter calcoaceticus; conditions: Acinetobacter calcoaceticus
Experimental: as §3, §2

Citerobacter freundii = tested on: Citerobacter freundii
Experimental: as §3, §2

[2] = tested on: Staphylococcus epidermidis; conditions: 20 h
Experimental: as §3, §2

Pseudomonas aeruginosa = conditions: Pseudomonas aeruginosa
Experimental: as §3, §2

Staphylococcus aureus = conditions: Staphylococcus aureus
Experimental: as §3, §2

Proteus penneri = conditions: Proteus penneri
Experimental: as §3, §2

Escherichia coli = conditions: Escherichia coli
Experimental: as §3, §2

Streptococcus pneumoniae = conditions: Streptococcus pneumoniae
Experimental: as §3, §2

Serratia marcescens = conditions: 20 h, read-out: MINIMUM INHIBITORY CONCENTRATION
Experimental: as §3, §2

[3] = 20 h, read-out: MINIMUM INHIBITORY CONCENTRATION
[4] = 20 h, read-out: MINIMUM INHIBITORY CONCENTRATION, Cult No. 152, MHA
[5] = 20 h, read-out: MINIMUM INHIBITORY CONCENTRATION, Cult No. 12170, MHA
[6] = read-out: MINIMUM INHIBITORY CONCENTRATION
[7] = 20 h, read-out: MINIMUM INHIBITORY CONCENTRATION, Cult No. 6676, MHA
[8] = 20 h, read-out: MINIMUM INHIBITORY CONCENTRATION, Cult No. 9191, MHA
[9] = 20 h, read-out: MINIMUM INHIBITORY CONCENTRATION, Cult No. 12120, MHA
[10] = 20 h, read-out: MINIMUM INHIBITORY CONCENTRATION, Cult No. 6685, MHA
[11] = 20 h, read-out: MINIMUM INHIBITORY CONCENTRATION, Cult No. 9213, MHA
[12] = 20 h, read-out: MINIMUM INHIBITORY CONCENTRATION, Cult No. 9218, MHA
[13] = 20 h, read-out: MINIMUM INHIBITORY CONCENTRATION, Cult No. 9271, MHA
[14] = 20 h, read-out: MINIMUM INHIBITORY CONCENTRATION, Cult No. 9679, MHA
[15] = 20 h, read-out: MINIMUM INHIBITORY CONCENTRATION, Cult No. 6674, MHA
[16] = 20 h, read-out: MINIMUM INHIBITORY CONCENTRATION, Cult No. 9451, MHA
[17] = 20 h, read-out: MINIMUM INHIBITORY CONCENTRATION, Cult No. 9855, MHA
[18] = 20 h, read-out: MINIMUM INHIBITORY CONCENTRATION, Cult No. 9952, MHA
[19] = 20 h, read-out: MINIMUM INHIBITORY CONCENTRATION, Cult No. 41, MHA

SMILES	MIC (Enterobacter cloacae; [3])	MIC (Streptococcus faecalis; [3])	MIC (Klebsiella pneumoniae; [3])	MIC (Streptococcus pyogenes; [4])	MIC [1, 5]	MIC (Citerobacter freundii; [3])	MIC [2, 6]	MIC (Pseudomonas aeruginosa; [7])	MIC (Pseudomonas aeruginosa; [8])	MIC (Pseudomonas aeruginosa; [9])	MIC (Staphylococcus aureus; [10])	MIC (Staphylococcus aureus; [11])	MIC (Staphylococcus aureus; [12])	MIC (Staphylococcus aureus; [13])	MIC (Proteus penneri; [14])	MIC (Escherichia coli; [15])	MIC (Escherichia coli; [16])	MIC (Escherichia coli; [17])	MIC (Escherichia coli; [18])	MIC (Streptococcus pneumoniae; [19])	also measured
O=C(O)c1cn(C23CC(C2)C3)c2c(F)c(N3CCC(O)C3)c(F)cc2c1=O (centres unmarked) [No. 3, 7-(3-hydroxy-1-pyrrolidinyl)-1-(bicyclo[1.1.1]pent-1-yl)-1,4-dihydro-6,8-difluoro-4-oxo-3-quinolinecarboxylic acid]	0.25 µg/mL (≈ 0.664 µM)	1 µg/mL (≈ 2.66 µM)	0.5 µg/mL (≈ 1.33 µM)	2 µg/mL (≈ 5.31 µM)	0.25 µg/mL (≈ 0.664 µM)	0.25 µg/mL (≈ 0.664 µM)	0.125 µg/mL (≈ 0.332 µM)	2 µg/mL (≈ 5.31 µM)	2 µg/mL (≈ 5.31 µM)	1 µg/mL (≈ 2.66 µM)	0.06 µg/mL (≈ 0.159 µM)	0.125 µg/mL (≈ 0.332 µM)	0.125 µg/mL (≈ 0.332 µM)	0.125 µg/mL (≈ 0.332 µM)	0.5 µg/mL (≈ 1.33 µM)	0.25 µg/mL (≈ 0.664 µM)	0.25 µg/mL (≈ 0.664 µM)	0.25 µg/mL (≈ 0.664 µM)	0.125 µg/mL (≈ 0.332 µM)	1 µg/mL (≈ 2.66 µM)	MIC (Serratia marcescens): 1 µg/mL (≈ 2.66 µM)
C#CC(C)(C)n1cc(C(=O)O)c(=O)c2cc(F)c(N3CCC(N)C3)nc21.CS(=O)(=O)O (racemic) [E, (+,-)-7-(3-amino-1-pyrrolidinyl)-1,4-dihydro-1-(1,1-dimethyl-2-propynyl)-6-fluoro-4-oxo-1,8-naphthyridine-3-carboxylic acid methanesulfonate]	–	–	–	–	–	–	–	–	–	–	–	–	–	–	–	–	–	–	–	–	MIC (Enterobacter cloacae; UC9382, 20 h, E. cloacae UC 9382, Table CI, read-out: Minimum Inhibitory Concentration): 0.06 µg/mL; MIC (Streptococcus faecalis; UC9217, 20 h, S. faecalis UC 9217, Table CI, read-out: Minimum Inhibitory Concentration): 1 µg/mL; MIC (Klebsiella pneumoniae; UC12081, 20 h, K. pneumoniae UC 12081, Table CI, read-out: Minimum Inhibitory Concentration): 0.125 µg/mL; MIC (Streptococcus pyogenes; UC152, 20 h, S. pyogenes UC 152, Table CI, read-out: Minimum Inhibitory Concentration): 0.25 µg/mL; MIC ([1]; UC12170, 20 h, A. calcoaceticus UC 12170, Table CI, read-out: Minimum Inhibitory Concentration): 0.25 µg/mL; MIC (Citerobacter freundii; Citrobacter freundii, UC3507, 20 h, C. freundii UC 3507, Table CI, read-out: Minimum Inhibitory Concentration): 0.06 µg/mL; MIC ([2]; S. epidermidis 30031, Table CI, read-out: Minimum Inhibitory Concentration): 0.125 µg/mL; MIC (Pseudomonas aeruginosa; UC6676, 20 h, Ps. aeruginosa UC 6676, Table CI, read-out: Minimum Inhibitory Concentration): 2 µg/mL; MIC (Pseudomonas aeruginosa; UC9191, 20 h, Ps. aeruginosa UC 9191, Table CI, read-out: Minimum Inhibitory Concentration): 1 µg/mL; MIC (Pseudomonas aeruginosa; UC12120, 20 h, Ps. aeruginosa UC 12120, Table CI, read-out: Minimum Inhibitory Concentration): 0.5 µg/mL; MIC (Staphylococcus aureus; UC6685, 20 h, S. aureus UC 6685, Table CI, read-out: Minimum Inhibitory Concentration): 0.125 µg/mL; MIC (Staphylococcus aureus; UC9213, 20 h, S. aureus UC 9213, Table CI, read-out: Minimum Inhibitory Concentration): 0.25 µg/mL; MIC (Staphylococcus aureus; UC9218, 20 h, S. aureus UC 9218, Table CI, read-out: Minimum Inhibitory Concentration): 0.25 µg/mL; MIC (Staphylococcus aureus; UC9271, 20 h, S. aureus UC 9271, Table CI, read-out: Minimum Inhibitory Concentration): 0.25 µg/mL; MIC (Proteus penneri; UC9679, 20 h, P. penneri UC 9679, Table CI, read-out: Minimum Inhibitory Concentration): 0.5 µg/mL; MIC (Escherichia coli; UC6674, 20 h, E. coli UC 6674, Table CI, read-out: Minimum Inhibitory Concentration): 0.06 µg/mL; MIC (Escherichia coli; UC9451, 20 h, E. coli UC 9451, Table CI, read-out: Minimum Inhibitory Concentration): 0.06 µg/mL; MIC (Escherichia coli; UC9855, 20 h, E. coli UC 9855, Table CI, read-out: Minimum Inhibitory Concentration): 0.06 µg/mL; MIC (Escherichia coli; UC9952, 20 h, E. coli UC 9952, Table CI, read-out: Minimum Inhibitory Concentration): 0.06 µg/mL; MIC (Streptococcus pneumoniae; UC41, 20 h, S. pneumoniae UC 41, Table CI, read-out: Minimum Inhibitory Concentration): 0.5 µg/mL
O=C(O)c1cn(C23CC(C2)C3)c2cc(N3CCNCC3)c(F)cc2c1=O [No. 2, 1-(bicyclo[1.1.1]pent-1-yl)-1,4-dihydro-6-fluoro-4-oxo-7-(1-piperazinyl)-3-quinolinecarboxylic acid]	0.125 µg/mL (≈ 0.35 µM)	4 µg/mL (≈ 11.2 µM)	0.25 µg/mL (≈ 0.7 µM)	2 µg/mL (≈ 5.6 µM)	0.5 µg/mL (≈ 1.4 µM)	0.06 µg/mL (≈ 0.168 µM)	0.5 µg/mL (≈ 1.4 µM)	4 µg/mL (≈ 11.2 µM)	2 µg/mL (≈ 5.6 µM)	1 µg/mL (≈ 2.8 µM)	0.5 µg/mL (≈ 1.4 µM)	1 µg/mL (≈ 2.8 µM)	1 µg/mL (≈ 2.8 µM)	1 µg/mL (≈ 2.8 µM)	0.5 µg/mL (≈ 1.4 µM)	0.125 µg/mL (≈ 0.35 µM)	0.125 µg/mL (≈ 0.35 µM)	0.125 µg/mL (≈ 0.35 µM)	0.125 µg/mL (≈ 0.35 µM)	4 µg/mL (≈ 11.2 µM)	MIC (Serratia marcescens): 0.5 µg/mL (≈ 1.4 µM)
